Values of other authors, collected in patent publication US11413253B2, “Nanoparticle delivery systems” (Celator Pharmaceuticals, Inc., priority 2015, dated 2022).

Details: shown in the art

plasma clearance of free drug | Structure (SMILES)
cleared quite rapidly | CCNC(=O)c1noc(-c2cc(C(C)C)c(O)cc2O)c1-c1ccc(CN2CCOCC2)cc1 [free AUY922, AUY922]
cleared quite rapidly | CC(=O)O[C@@]12CO[C@@H]1C[C@H](O)[C@@]1(C)C(=O)[C@H](O)C3=C(C)[C@@H](OC(=O)[C@H](O)[C@@H](NC(=O)OC(C)(C)C)c4ccccc4)C[C@@](O)([C@@H](OC(=O)c4ccccc4)[C@H]21)C3(C)C [free docetaxel, docetaxel]
